The values below come from patent publication US5086047A, “Novel steroids” (Roussel Uclaf, Department des Brevets, priority 1989, dated 1992).

Like-named read-outs stand apart in the source and are kept apart here.

Assay [1] has as its target T1, aromatase (cytochrome P450 aromatase) (Homo sapiens, UniProt P11511).
T1 construct: This supernatant was then subjected to an ultra-centrifugation stage (90 minutes, 150,000 g) to obtain the microsomal deposit; from tissue; host or cells: human placenta, microsomal fraction
T1 sequence (P11511 1-503): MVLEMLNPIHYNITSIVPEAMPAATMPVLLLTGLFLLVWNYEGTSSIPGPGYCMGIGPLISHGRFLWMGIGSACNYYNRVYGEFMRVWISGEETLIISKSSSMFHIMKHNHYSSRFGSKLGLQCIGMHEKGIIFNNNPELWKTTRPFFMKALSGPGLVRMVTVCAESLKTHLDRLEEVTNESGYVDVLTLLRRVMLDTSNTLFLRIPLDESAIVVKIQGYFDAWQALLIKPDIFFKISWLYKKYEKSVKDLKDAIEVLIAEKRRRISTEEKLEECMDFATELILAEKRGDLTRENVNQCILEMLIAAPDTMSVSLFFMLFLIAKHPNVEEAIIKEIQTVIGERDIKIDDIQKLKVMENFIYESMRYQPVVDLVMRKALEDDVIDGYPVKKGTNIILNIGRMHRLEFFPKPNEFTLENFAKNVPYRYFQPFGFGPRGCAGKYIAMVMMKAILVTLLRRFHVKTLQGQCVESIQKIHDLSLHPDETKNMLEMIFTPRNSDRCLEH
Kind of assay: Aromatase inhibition in vitro, human placental microsomes, tritiated water release from 1β,2β-(H^3)-Androstenedione. The assay is classed as biochemical. How it is done: Inhibition dependent on the concentration (measurement of the IC50 =concentration of the inhibitor necessary to reduce the enzymatic activity by 50%).
Human placentas were used which were washed one hour at most after delivery, perfused with physiological serum (5 liters) via the umbilical vein and then deep-frozen at -40° C.
The placentas were thawed at 4° C. and then homogenized (1:3) in a 10 mM phosphate buffer, pH=7.0 containing 100 millimoles of potassium chloride (KCl), 10 millimoles of dithiothreitol (DTT), 10 millimoles of ethylenediamine-tetraacetic acid (EDTA), 40 millimoles of nicotinamide and 250 millimoles of sucrose. The homogenates were then subjected to different phases of centrifugation until the "9000 g" supernatant was obtained (corresponding to cytosol and to endoplasmic reticulum). This supernatant was then subjected to an ultra-centrifugation stage (90 minutes, 150,000 g) to obtain the microsomal deposit. The microsomes were then resuspended in a 50 mM phosphate buffer, pH=7.4, containing 100 millimoles KCl, 1 millimole EDTA, 1 millimole DTT and glycerol (10%). The microsomal suspension was aliquoted and the fractions deep-frozen at the temperature of liquid nitrogen. The concentration of proteins in the microsomal suspension was determined by the BRADFORD method (BRADFORD., Anal. Biochem., Vol. 72, (1976) 248).
To 960 microliters of phosphate buffer (50 millimoles, pH=7.2) 2.5 millimoles glucose-6-phosphate, and containing 0.16 international units of glucose-6-phosphate dehydrogenase (G-6-PDH), the following were added in this order:
1) -10 microliters of inhibitor solubilized in dimethyl-sulfoxide (DMSO) to give final concentrations from 10^-5 M to 10^-10 M.
2) -10 microliters of substrate which was 500 nM Androstenedione solubilized in ethanol and containing 1β,- 2β-(H^3)-Androstenedione in a known isotopic dilution (approx. 200,000 disintegrations per minute).
3) 10 microliters of microsomal suspension equivalent to 25 micrograms of proteins per test.
The enzymatic reaction was then very rapidly initiated by the addition of 10 microliters of reduced nicotinamide adenine dinucleotide phosphate (NADPH) solubilized in water. After stirring, each test was incubated at 37° C. for 10 minutes. The reaction was then stopped by the addition of chloroform (4 ml).
After vigorous stirring of the tubes, they were decanted and centrifuged at 4° C. for 10 minutes at a speed of 3000 r.p.m. (rotations per minute), that is 600 X g. After centrifuging, and for each tube, 100 microliters of supernatant was removed and counted in the presence of a scintillating liquid. This method was derived from the procedures described by Reed et al, (J. Biol. Chem., Vol. 251, (1976), p. 1625) and Thompson et al, (J. Biol. Chem., Vol. 249, (1974), p. 5364). The enzymatic activity (aromatase) was proportional to the percentage of tritium salted out in the form of tritiated water (H^3 20) in the course of the reaction. The inhibition obtained for each concentration of each inhibiting product of the invention was calculated as a percentage of the controls (arbitrary 100%, obtained in the absence of any inhibitor). The CI50 was equal to the concentration of inhibitor necessary to decrease the enzymatic activity by 50% and the values of the CI50 's obtained for the inhibiting products of the invention are as follows: […]

Assay [2] deals with seric estradiol. Put plainly: Amount of estradiol circulating in rats induced with P.M.S.G. The assay is classed as in vivo, rat. To be noted: female rats, PMSG 100 I.U., ** p<0.01. How it is done:
I-AMOUNT OF ESTRADIOL CIRCULATING IN RATS INDUCED WITH P.M.S.G.
(Pregnant Mare Serum Gonadotrophine)
Female rats weighing 150 g were induced by an injection of P.M.S.G. (100 I.U./rat/sc). After 90 hours, the animals were treated with the product under test (sc or po) and a blood sample was taken before and after treatment to measure the amount of seric estradiol.
DO, -90 h: injection of 100 I.U. of PMSG/rat.
DO, 0 h: sample of blood from […] then treatment with the product under test.
DO, +2 h: sample of blood.
DO, +6 h: killing of animals and collection of blood.
After coagulation and centrifugation of the blood, the serum was recovered which was dosed with estradiol (E2) by means of an RIA dosage kit (Baxter ER155). The results were expressed as a percentage variation relative to the amount of estradiol at time 0 (each animal is its own control). The statistical test used is the Mann-Whitney U-test (*:p<0.05; **:p<0.01).

Where [3] appears, read: human placental microsomes, Androstenedione 500 nM, 37° C., 10 minutes, read-out: CI50 (concentration of inhibitor necessary to decrease the enzymatic activity by 50%).
The mark [4] stands for this setting: Parenterally (so in the source), 5 mg/kg.

In the case of `CSCC[C@]12CCC(=O)C=C1CC[C@@H]1C2=CC[C@]2(C)[C@@H](O)CC[C@@H]12` [Example 13, 10β-[2-(methylthio)-ethyl]-Δ^4,9(11) -estradien-17-ol-3-one], the IC50 in assay [1] (setting [3]) came to 50 nM. Moreover, in assay [2] (setting [4]), the “percentage variation relative to the amount of estradiol at time 0, +2 h” value is -70 percentage variation and the “percentage variation relative to the amount of estradiol at time 0, +6 h” value is reported as -53 percentage variation. Besides, in assay [2] (Subcutaneously, 1 mg/kg), the “percentage variation relative to the amount of estradiol at time 0, +2 h” value is -56 percentage variation and the “percentage variation relative to the amount of estradiol at time 0, +6 h” value is given as -60 percentage variation.

Take `CCSCC[C@]12CCC(=O)C=C1CC[C@@H]1C2=CC[C@]2(C)C(=O)CC[C@@H]12` [Example 2]: the IC50 in assay [1] (setting [3]) was 870 nM.

For `CSCC[C@]12CC[C@H](O)C=C1CC[C@@H]1C2=CC[C@]2(C)[C@@H](O)CC[C@@H]12` [26 (3 beta OH), 10β-[2-(methylthio)-ethyl]-Δ^4,9(11) estradien-3β,17β-diol], the IC50 in assay [1] (setting [3]) came to 165 nM. For the same compound, in assay [2] (setting [4]), the “percentage variation relative to the amount of estradiol at time 0, +2 h” value is -63 percentage variation and the “percentage variation relative to the amount of estradiol at time 0, +6 h” value is reported as -64 percentage variation.

For `C#CSCC[C@]12CCC(=O)C=C1CC[C@@H]1C2=CC[C@]2(C)C(=O)CC[C@@H]12` [Example 21, 10β-[2-(ethynylthio)-ethyl]-Δ^4,9(11) -estradiene-3,17-dione], the IC50 in assay [1] (setting [3]) is 330 nM.

Take `CSCC[C@]12CCC(=O)CC1CC[C@@H]1C2=CC[C@]2(C)C(=O)CC[C@@H]12` (stereo partly drawn) [Example 31, 10β-[2-(methylthio)-ethyl]-Δ^9(11) -estren-3,17-dione]: the IC50 in assay [1] (setting [3]) was 5.5 nM. In assay [2] (setting [4]), the “percentage variation relative to the amount of estradiol at time 0, +2 h” value is -69 percentage variation and the “percentage variation relative to the amount of estradiol at time 0, +6 h” value is given as -56 percentage variation.

`CSCC[C@]12CCC(=O)C=C1CC[C@@H]1C2=CC[C@]2(C)C(=O)CC[C@@H]12` [Example 1, 10β-[2-(methylthio)-ethyl]-Δ^4,9(11) -estradiene-3,17-dione]: the IC50 in assay [1] was 20 nM. Besides, the “percentage variation relative to the amount of estradiol at time 0, +2 h” value is listed as -51 percentage variation in assay [2] (setting [4]) and -55 percentage variation in assay [2] (Subcutaneously, 1 mg/kg). Also, the “percentage variation relative to the amount of estradiol at time 0, +6 h” value in assay [2] (setting [4]) was -51 percentage variation; in assay [2] (Subcutaneously, 1 mg/kg), -68 percentage variation.

Regarding `CSCC[C@]12CCC(=O)C=C1CC[C@@H]1C2=CC[C@]2(C)[C@@H](OC(=O)CCC(=O)O)CC[C@@H]12` [Example 27, Butanedioate of 10β-[2-(methylthio)-ethyl]-3-oxo-Δ^4,9(11) -estradien-17β-yl and of sodium], in assay [2] (setting [4]), the “percentage variation relative to the amount of estradiol at time 0, +2 h” value is -58 percentage variation and the “percentage variation relative to the amount of estradiol at time 0, +6 h” value is given as -45 percentage variation. Further, in assay [2] (Subcutaneously, 1 mg/kg), the “percentage variation relative to the amount of estradiol at time 0, +2 h” value is on record as -56 percentage variation and the “percentage variation relative to the amount of estradiol at time 0, +6 h” value was -20 percentage variation.

As for `CSCC[C@]12CC[C@@H](O)C=C1CC[C@@H]1C2=CC[C@]2(C)[C@@H](O)CC[C@@H]12` [Example 26 (3 alpha OH)], in assay [2] (setting [4]), the “percentage variation relative to the amount of estradiol at time 0, +2 h” value is given as -53 percentage variation and the “percentage variation relative to the amount of estradiol at time 0, +6 h” value was -53 percentage variation.

On to `C[C@]12CC=C3[C@@H](CCC4=CC(=O)CC[C@@]43CCSCF)[C@@H]1CCC2=O` [Example 22], for which the IC50 in assay [1] (setting [3]) is 500 nM.
